Laboratory results taken from ChEMBL document CHEMBL1157077, “Gneyulins A and B, stilbene trimers, and noidesols A and B, dihydroflavonol-C-glucosides, from the bark of Gnetum gnemonoides” (J Nat Prod, 2010).

Tests used:
[1] = biological target: T1, Sodium/glucose cotransporter 2 (Homo sapiens, UniProt P31639); experiment: Inhibition of SGLT2 transfected in african green monkey COS1 cells assessed as alpha-D-[U-14C]glucopyranoside uptake after 30 mins by scintillation counting; assay type: cell-based, COS-1
T1 sequence (P31639 whole entry): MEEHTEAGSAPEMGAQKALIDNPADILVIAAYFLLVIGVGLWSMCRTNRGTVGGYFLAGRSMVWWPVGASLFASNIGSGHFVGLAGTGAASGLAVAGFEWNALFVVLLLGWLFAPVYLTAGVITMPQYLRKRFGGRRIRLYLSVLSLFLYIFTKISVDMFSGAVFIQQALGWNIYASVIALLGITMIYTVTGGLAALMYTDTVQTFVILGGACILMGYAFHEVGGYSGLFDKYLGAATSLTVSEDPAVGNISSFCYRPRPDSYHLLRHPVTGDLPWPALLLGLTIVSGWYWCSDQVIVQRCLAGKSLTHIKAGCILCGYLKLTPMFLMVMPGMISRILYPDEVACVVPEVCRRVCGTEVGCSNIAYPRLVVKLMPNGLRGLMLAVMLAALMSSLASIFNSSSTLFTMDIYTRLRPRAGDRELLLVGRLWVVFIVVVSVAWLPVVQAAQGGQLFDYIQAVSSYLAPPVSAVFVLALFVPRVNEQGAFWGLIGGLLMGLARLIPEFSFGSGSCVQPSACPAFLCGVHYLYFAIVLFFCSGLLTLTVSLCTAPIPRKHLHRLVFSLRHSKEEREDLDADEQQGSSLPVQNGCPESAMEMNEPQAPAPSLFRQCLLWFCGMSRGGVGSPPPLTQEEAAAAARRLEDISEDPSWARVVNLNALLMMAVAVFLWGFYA

[2] = biological target: T2, Sodium/glucose cotransporter 1 (Homo sapiens, UniProt P13866); experiment: Inhibition of SGLT1 transfected in african green monkey COS1 cells assessed as alpha-D-[U-14C]glucopyranoside uptake after 30 mins by scintillation counting; assay type: cell-based, COS-1
T2 sequence (P13866 whole entry): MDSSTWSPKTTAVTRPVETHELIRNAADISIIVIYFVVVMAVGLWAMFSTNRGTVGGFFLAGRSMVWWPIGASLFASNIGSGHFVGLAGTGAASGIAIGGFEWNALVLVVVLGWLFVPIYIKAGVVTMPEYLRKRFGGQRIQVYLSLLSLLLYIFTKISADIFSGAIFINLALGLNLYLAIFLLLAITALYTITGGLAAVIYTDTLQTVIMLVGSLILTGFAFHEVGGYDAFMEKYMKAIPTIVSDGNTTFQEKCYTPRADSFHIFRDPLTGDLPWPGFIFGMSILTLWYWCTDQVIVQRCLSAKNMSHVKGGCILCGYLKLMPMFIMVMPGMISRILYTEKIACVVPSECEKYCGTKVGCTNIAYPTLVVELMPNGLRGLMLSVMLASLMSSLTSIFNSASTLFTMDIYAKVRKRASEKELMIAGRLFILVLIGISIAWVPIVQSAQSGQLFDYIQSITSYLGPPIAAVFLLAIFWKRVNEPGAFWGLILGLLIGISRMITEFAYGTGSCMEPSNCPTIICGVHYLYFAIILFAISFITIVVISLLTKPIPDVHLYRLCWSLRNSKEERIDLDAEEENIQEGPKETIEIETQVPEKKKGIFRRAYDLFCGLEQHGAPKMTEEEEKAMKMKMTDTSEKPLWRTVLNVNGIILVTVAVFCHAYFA

IC50 ([1]; read-out: IC50)	IC50 ([2]; read-out: IC50)	IC50 ([1]; cos-1)	IC50 ([2]; cos-1)	SMILES
25 µM	27 µM			Oc1cc(O)cc([C@@H]2c3cc([C@@H]4Oc5cc(/C=C/c6ccc(O)cc6O)cc(O)c5[C@H]4c4cc(O)cc(O)c4)c(O)cc3O[C@H]2c2ccc(O)cc2O)c1 [GNEYULIN A]
18 µM	37 µM			Oc1cc(O)cc([C@@H]2c3cc([C@@H]4Oc5cc(-c6cc7ccc(O)cc7o6)cc(O)c5[C@H]4c4cc(O)cc(O)c4)c(O)cc3O[C@H]2c2ccc(O)cc2O)c1 [GNEYULIN B]
		Not Active	Not Active	COc1cc(O)c2c(c1[C@@H]1O[C@H](CO)[C@@H](O)[C@H](O)[C@H]1O)O[C@H](c1ccc(O)c(O)c1)[C@@H](O)C2=O [NOIDESOL A]
		Not Active	Not Active	COc1ccc([C@H]2Oc3cc(O)c([C@@H]4O[C@H](CO)[C@@H](O)[C@H](O)[C@H]4O)c(O)c3C(=O)[C@@H]2O)cc1O [NOIDESOL B]
